Data published in PubChem BioAssay AID248 (DTP/NCI, 2004).
“And” between values parts separate entries of the source, which are not always exact repeats. Equal values may be shown once. Toxic doses and inconclusive results are not listed. Rule as the data show it: active = T/C of 150% or more; inactive = T/C below 125%.

Test system: L1210 leukemia ip in BDF1 mice, survival T/C
Assay: NCI In Vivo Anticancer Drug Screen. Data for tumor model L1210 Leukemia (intraperitoneal) in B6D2F1 (BDF1) mice
Conditions: endpoint: mean survival time, higher = longer survival
Method in brief: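 Tumor cells were implanted, animals were treated, and survival was followed. The result divides the treated measurement by the vehicle-control measurement.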

[1] = dose: 100.0 mg/kg/injection, schedule: Q01DX001 (ip), vehicle: carboxymethylcellulose (CMC)
[2] = dose: 200.0 mg/kg/injection, schedule: Q01DX001 (ip), vehicle: carboxymethylcellulose (CMC)
[3] = dose: 400.0 mg/kg/injection, schedule: Q01DX001 (ip), vehicle: carboxymethylcellulose (CMC)
[4] = dose: 25.0 mg/kg/injection, schedule: Q01DX001 (ip), vehicle: saline with Tween-80
[5] = dose: 50.0 mg/kg/injection, schedule: Q01DX001 (ip), vehicle: carboxymethylcellulose (CMC)
[6] = dose: 100.0 mg/kg/injection, schedule: Q01DX009 (ip), vehicle: Klucel (hydroxypropylcellulose) (HPC)
[7] = dose: 100.0 mg/kg/injection, schedule: Q04DX003 (ip), vehicle: Klucel (hydroxypropylcellulose) (HPC)
[8] = dose: 200.0 mg/kg/injection, schedule: Q01DX009 (ip), vehicle: Klucel (hydroxypropylcellulose) (HPC)
[9] = dose: 200.0 mg/kg/injection, schedule: Q04DX003 (ip), vehicle: Klucel (hydroxypropylcellulose) (HPC)
[10] = dose: 400.0 mg/kg/injection, schedule: Q01DX009 (ip), vehicle: Klucel (hydroxypropylcellulose) (HPC)
[11] = dose: 400.0 mg/kg/injection, schedule: Q04DX003 (ip), vehicle: Klucel (hydroxypropylcellulose) (HPC)
[12] = dose: 100.0 mg/kg/injection, schedule: Q04DX003 (ip), vehicle: saline with Tween-80
[13] = dose: 200.0 mg/kg/injection, schedule: Q04DX003 (ip), vehicle: saline with Tween-80

Measured: T/C

CC1(C)CC(=O)CC(=C2C(=O)NC(=O)NC2=O)C1
inactive: [1] 89 % of control | dose: 100.0 mg/kg/injection, schedule: Q01DX002 (ip), vehicle: saline with Tween-80 92 % of control | dose: 100.0 mg/kg/injection, schedule: Q04DX002 (ip), vehicle: saline with Tween-80 103 % of control | [2] 92 % of control | dose: 200.0 mg/kg/injection, schedule: Q01DX002 (ip), vehicle: saline with Tween-80 98 % of control | dose: 200.0 mg/kg/injection, schedule: Q04DX002 (ip), vehicle: saline with Tween-80 111 % of control | [3] 87 % of control | dose: 400.0 mg/kg/injection, schedule: Q01DX002 (ip), vehicle: saline with Tween-80 95 % of control | dose: 400.0 mg/kg/injection, schedule: Q04DX002 (ip), vehicle: saline with Tween-80 100 % of control

N/N=C\C(=N/N)C(O)C(O)C(O)CO (stereo not given)
inactive: [4] 93 % of control | dose: 50.0 mg/kg/injection, schedule: Q01DX001 (ip), vehicle: saline with Tween-80 90 % of control | dose: 100.0 mg/kg/injection, schedule: Q01DX001 (ip), vehicle: saline with Tween-80 87 % of control

CS(C)=O.CS(C)=O.CS(C)=O.[Cl][Rh]([Cl])[Cl]
inactive: dose: 6.25 mg/kg/injection, schedule: Q01DX009 (ip), vehicle: saline 106 % of control | dose: 12.5 mg/kg/injection, schedule: Q01DX009 (ip), vehicle: saline 98 % of control | dose: 15.0 mg/kg/injection, schedule: Q01DX009 (ip), vehicle: saline 107 % of control | dose: 40.0 mg/kg/injection, schedule: Q01DX009 (ip), vehicle: saline 104 % of control | dose: 100.0 mg/kg/injection, schedule: Q04DX003 (ip), vehicle: saline 96 % of control | dose: 200.0 mg/kg/injection, schedule: Q04DX003 (ip), vehicle: saline 89 % of control

Cc1ccc(S)cc1.[Pb]
inactive: [5] 98 % of control | [1] 93 % of control | [2] 103 % of control | [3] 93 % of control

OC(CBr)c1ccc(Cl)c(Cl)c1 (stereo not given)
inactive: [6] 103 % of control | [7] 97 % of control | [8] 105 % of control | [9] 103 % of control | [10] 97 % of control | [11] 103 % of control

CC(=O)NCC(C)OC(C)=O (stereo not given)
inactive: dose: 100.0 mg/kg/injection, schedule: Q01DX009 (ip), vehicle: saline 104 % of control | dose: 200.0 mg/kg/injection, schedule: Q01DX009 (ip), vehicle: saline 97 % of control | dose: 400.0 mg/kg/injection, schedule: Q01DX009 (ip), vehicle: saline 97 % of control

CC(=O)Nc1ccc(N=NN(C)C)cc1
inactive: dose: 1.56 mg/kg/injection, schedule: Q04DX003 (ip), vehicle: saline with Tween-80 97 % of control and 101 % of control | dose: 3.12 mg/kg/injection, schedule: Q01DX001 (ip), vehicle: saline with Tween-80 101 % of control | dose: 3.12 mg/kg/injection, schedule: Q04DX003 (ip), vehicle: saline with Tween-80 97 % of control and 98 % of control | dose: 6.25 mg/kg/injection, schedule: Q01DX001 (ip), vehicle: saline with Tween-80 107 % of control | dose: 6.25 mg/kg/injection, schedule: Q04DX003 (ip), vehicle: saline with Tween-80 101 % of control and 104 % of control | dose: 12.5 mg/kg/injection, schedule: Q01DX001 (ip), vehicle: saline with Tween-80 108 % of control | dose: 12.5 mg/kg/injection, schedule: Q04DX003 (ip), vehicle: saline with Tween-80 100 % of control and 102 % of control | [4] 113 % of control

CS(=O)(=O)OCCCCO
inactive: [5] 88 % of control | [1] 93 % of control | [2] 93 % of control | [3] 90 % of control

CCCCCCCCC(=O)N(C)OC
inactive: [12] 93 % of control | [13] 93 % of control

CC12CCC(C1)C(C)(C)C2N1C(c2ccccc2)C1c1ccccc1 (stereo not given)
inactive: [6] 87 % of control | [8] 87 % of control | [10] 100 % of control

NC(=O)Oc1ccc(C2CC(=O)C(C(N)=O)C(=O)C2)cc1 (stereo not given)
inactive: dose: 100.0 mg/kg/injection, schedule: Q01DX001 (ip), vehicle: other 97 % of control | [12] 108 % of control | dose: 200.0 mg/kg/injection, schedule: Q01DX001 (ip), vehicle: other 92 % of control | [13] 103 % of control | dose: 400.0 mg/kg/injection, schedule: Q01DX001 (ip), vehicle: other 94 % of control | dose: 400.0 mg/kg/injection, schedule: Q04DX003 (ip), vehicle: saline with Tween-80 100 % of control

CC(=O)OCCN1C(=O)CN=C(c2ccccn2)c2cc(Cl)ccc21
inactive: [6] 99 % of control | [7] 100 % of control | [8] 102 % of control | [9] 101 % of control | [10] 94 % of control | [11] 97 % of control

Cc1cc(=O)oc2cc(OC(=O)Nc3cccc(Cl)c3Cl)ccc12
inactive: dose: 25.0 mg/kg/injection, schedule: Q01DX009 (ip), vehicle: Klucel (hydroxypropylcellulose) (HPC) 89 % of control | dose: 50.0 mg/kg/injection, schedule: Q01DX009 (ip), vehicle: Klucel (hydroxypropylcellulose) (HPC) 93 % of control | [6] 98 % of control

CC(C#N)OC(=O)c1ccccc1 (stereo not given)
inactive: dose: 8.75 mg/kg/injection, schedule: Q01DX009 (ip), vehicle: acetone 96 % of control | dose: 12.5 mg/kg/injection, schedule: Q01DX001 (ip), vehicle: saline 100 % of control | dose: 17.5 mg/kg/injection, schedule: Q01DX009 (ip), vehicle: acetone 95 % of control | dose: 25.0 mg/kg/injection, schedule: Q01DX001 (ip), vehicle: saline 105 % of control | dose: 35.0 mg/kg/injection, schedule: Q01DX009 (ip), vehicle: acetone 91 % of control | dose: 35.0 mg/kg/injection, schedule: Q04DX003 (ip), vehicle: saline 95 % of control | dose: 50.0 mg/kg/injection, schedule: Q01DX009 (ip), vehicle: acetone 94 % of control

O=C(Nc1ccc2ccccc2c1)Nc1ccccc1F
inactive: [6] 93 % of control | [8] 104 % of control | [10] 93 % of control

CN(C)CSc1ccccc1
inactive: dose: 10.0 mg/kg/injection, schedule: Q01DX001 (ip), vehicle: saline 101 % of control | dose: 20.0 mg/kg/injection, schedule: Q01DX001 (ip), vehicle: saline 110 % of control | dose: 40.0 mg/kg/injection, schedule: Q01DX001 (ip), vehicle: saline 104 % of control | dose: 80.0 mg/kg/injection, schedule: Q01DX001 (ip), vehicle: saline 98 % of control

CC1CN1P1(=O)OCC(C)([N+](=O)[O-])CO1 (stereo not given)
inactive: [5] 106 % of control | [1] 110 % of control | [2] 104 % of control | [3] 112 % of control

N#C/C(=C\c1c[nH]c2ccccc12)c1ccc([N+](=O)[O-])cc1
inactive: dose: 100.0 mg/kg/injection, schedule: Q04DX002 (ip), vehicle: gum acacia 95 % of control | dose: 200.0 mg/kg/injection, schedule: Q04DX002 (ip), vehicle: gum acacia 101 % of control

CN1C(=O)CN(CCN2CC(=O)N(C)C2=S)C1=S
inactive: dose: 100.0 mg/kg/injection, schedule: Q04DX002 (ip), vehicle: Klucel (hydroxypropylcellulose) (HPC) 105 % of control | dose: 200.0 mg/kg/injection, schedule: Q04DX002 (ip), vehicle: Klucel (hydroxypropylcellulose) (HPC) 97 % of control | dose: 400.0 mg/kg/injection, schedule: Q04DX002 (ip), vehicle: Klucel (hydroxypropylcellulose) (HPC) 90 % of control

CC(=O)c1ccccc1OCC(O)CN1CCN(c2ccccc2)CC1 (stereo not given)
inactive: dose: 25.0 mg/kg/injection, schedule: Q01DX009 (ip), vehicle: saline with Tween-80 94 % of control | dose: 25.0 mg/kg/injection, schedule: Q04DX003 (ip), vehicle: saline with Tween-80 100 % of control | dose: 50.0 mg/kg/injection, schedule: Q01DX009 (ip), vehicle: saline with Tween-80 101 % of control | dose: 50.0 mg/kg/injection, schedule: Q04DX003 (ip), vehicle: saline with Tween-80 103 % of control | dose: 100.0 mg/kg/injection, schedule: Q01DX009 (ip), vehicle: saline with Tween-80 101 % of control | [12] 97 % of control

Nc1ccc2c(c1[N+](=O)[O-])C(=O)c1ccccc1C2=O
inactive: dose: 100.0 mg/kg/injection, schedule: Q01DX001 (ip), vehicle: saline 92 % of control | dose: 200.0 mg/kg/injection, schedule: Q01DX001 (ip), vehicle: saline 95 % of control | dose: 400.0 mg/kg/injection, schedule: Q01DX001 (ip), vehicle: saline 97 % of control
